In patent US20210093637A1, “TOPICAL OINTMENT FORMULATIONS OF PDE-4 INHIBITOR AND THEIR USE IN TREATING SKIN CONDITIONS” (Dermavant Sciences GmbH, priority 2017, published 2021):

Experiments:
[1] = system: NC/Nga mice; experiment: Prophylactic study in DNCB-induced atopic dermatitis NC/Nga mice (treatment days 1-14); type: in vivo, mouse; conditions: skin sections day 15
From the text: (§1) Atopic dermatitis (AD) was induced in specific pathogen-free (SPF) female NC/Nga mice (n=8/group), 8-12 weeks old, by repeated percutaneous applications of dinitrochlorobenzene (DNCB) to the dorsal skin of the ears and back on days 4, 7, 10, and 13. NC/Nga mice are an established mouse model for atopic dermatitis. See Suto et al. NC/Nga mice: a mouse model for atopic dermatitis; Int Arch Allergy Immunol. 1999; 120 Suppl 1:70-5; and Gao et al., Establishment of allergic dermatitis in NC/Nga mice as a model for severe atopic dermatitis, Biol. Pharm. Bull. 2004 September; 27(9): 1376-81.
(§2) A prophylactic study and a therapeutic study was conducted: • 1. Prophylactic study: 0.2% formulation (C1), 0.5% formulation (C2), RVT-501 placebo, tacrolimus placebo, 0.1% tacrolimus, or no treatment (AD control) on days 1-14 or sham-induction of AD. • 2. Therapeutic study: 0.2% formulation (C1), 0.5% formulation (C2), active ingredient placebo, tacrolimus placebo, 0.1% tacrolimus, or no treatment (AD control) on days 8-14.
(§3) Scratching assays were performed on days 2, 8, 11, 14 in both studies. Skin samples were harvested for histopathology and cytokine analysis on day 15. Histopathology of sham-induced versus DNCB-induced mouse skin indicates clear presence of atopic dermatitis.

[2] = system: NC/Nga mice; experiment: Therapeutic study in DNCB-induced atopic dermatitis NC/Nga mice (treatment days 8-14); type: in vivo, mouse
From the text: as §1, §2, §3

## C=CC[C@@H]1/C=C(\C)C[C@H](C)C[C@H](OC)[C@H]2O[C@@](O)(C(=O)C(=O)N3CCCC[C@H]3C(=O)O[C@H](/C(C)=C/[C@@H]3CC[C@@H](O)[C@H](OC)C3)[C@H](C)[C@@H](O)CC1=O)[C@H](C)C[C@@H]2OC [0.1% tacrolimus, tacrolimus]
[1]
  AD lesions induced by DNCB at the microscopic level: attenuated AD lesions
[2]; day 14
  scratching: significant decrease in scratching
[2]; day 15
  IL-1α, IL-1β, IL-4, IL-5, IL-10, IL-12(p40), IL-13, eotaxin, GM-CSF, KC, MCP-1, MIP-1α, MIP-1β, RANTES, and TNF-α in skin: significantly decreased
[2]; skin sections day 15
  AD lesion severity: trended toward a reduction
